This is an account of results in patent publication US12202829B2, “Heterocyclic compound” (FIMECS, Inc., priority 2018, dated 2025).

Counter-ions that a name gives are not always drawn.

The assay has as its target T1, human XIAP_BIR3 domain purified protein (Homo sapiens, UniProt P98170).
T1 construct: purchased R & D
In words: XIAP binding inhibitory activity, HTRF method with b-Smac ligand. The conditions noted are these: for inhibition at 3 µM: test compound 3 μM, first symbol of the cell, read-out: XIAP binding inhibition rate when the concentration of the test compound is 3 μM; for IC50: second symbol of the cell, read-out: XIAP binding 50% inhibitory concentration (IC50 value). Here is the method: Human XIAP binding inhibitory activity were measured by the Homogeneous Time Resolved Fluorescence (HTRF) method with using commercially available human XIAP_BIR3 domain purified protein (R & D) and as a ligand a Smac N-terminal peptide (AVPIAQK (SEQ ID NO: 1)) (hereinafter referred to as “b-Smac”; Peptide Research Laboratories, Inc.) biotinylated at the C-terminus according to a conventional method.
The HTRF method will be described in detail below. A test compound diluted with a reaction buffer was added to a 384-well white shallow bottom plate (Greiner 784076) at 1 μL/well and flash centrifuged for 30 seconds. Subsequently, human XIAP_BIR3 domain purified protein was diluted with the reaction buffer (25 mM HEPES Buffer containing 100 mM NaCl, 0.1% BSA, and 0.1% triton X-100, pH 7.5) to obtain a 90 nM sample diluent, and the resultant sample diluent was added to the above-mentioned white superficial plate at 4.5 μL/well and flash centrifuged for 30 seconds. Subsequently, b-Smac diluted to 90 nM with the reaction buffer was added to the above-mentioned white superficial plat at 4.5 μL/well and flash centrifuged for 30 seconds. A mixed solution of Anti-6 HIS-Cryptate (Eu3+Cryptate-conjugated mouse monoclonal antibody anti-6 Histidine; cisbio) and Streptavidin-XL^ent! (Highgrade XL665-conjugated streptavidin; cisbio) both diluted 100-fold with HTRF detection buffer (cisbio) at a volume ratio of 1:1 was added to the above white superficial plate at 10 μL/well. After flash centrifuging the white shallow bottom plate for 30 seconds, the white shallow bottom plate was left at room temperature for 4 hours or more in the dark. The white superficial plate after being left was subjected to fluorescence intensity measurement (excitation wavelength: 320 nm, fluorescence wavelength: 665 nm and 615 nm) by EnVision (Perkin Elmer).
The binding inhibition rate (%) was calculated based on the HTRF ratio in the presence of the test compound to the HTRF ratio in the absence of the test compound (fluorescence intensity at 665 nm/fluorescence intensity at 615 nm).
(In general: TR-FRET usually uses a lanthanide donor and a delayed reading to cut background.)

T1 sequence (P98170 252-356 limits assumed): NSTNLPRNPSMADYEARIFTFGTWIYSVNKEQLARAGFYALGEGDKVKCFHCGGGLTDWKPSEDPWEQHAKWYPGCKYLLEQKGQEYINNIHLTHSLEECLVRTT

With `CCCc1cc(C(=O)N2CCN(C(=O)[C@@H](NC(=O)[C@H](C)NC)C3CCCCC3)CC2)n(C)n1` [Example 10, (S)-N-((S)-1-cyclohexyl-2-(4-(1-methyl-3-propyl-1H-pyrazole-5-carbonyl)piperazin-1-yl)-2-oxoethyl)-2-(methylamino)propanamide], the inhibition at 3 µM is more than 25%.
With `CN[C@@H](C)C(=O)N[C@H](C(=O)N1CCN(C(=O)c2c(OCCOCCOCCOCCO)c3cc(F)c(F)cc3n2C)CC1)C1CCCCC1` [Example 63, (S)-N-((S)-1-cyclohexyl-2-(4-(5,6-difluoro-3-(2-(2-(2-(2-hydroxyethoxy)ethoxy)ethoxy)ethoxy)-1-methyl-1H-indole-2-carbonyl)piperazin-1-yl)-2-oxoethyl)-2-(methylamino)propanamide], the inhibition at 3 µM was in the range of 25 to 50%.
With `Cc1nc(Nc2ncc(C(=O)Nc3c(C)cccc3Cl)s2)cc(N2CCN(CCOCCOCCOC[C@H]3CN[C@H](C)CN3CC(=O)N3CCN(C(=O)c4cc5cc(F)c(F)cc5n4C)C[C@H]3C)CC2)n1` [Example 83, N-(2-chloro-6-methylphenyl)-2-((6-(4-(2-(2-(2-(((2R,5R)-1-(2-((R)-4-(5,6-difluoro-1-methyl-1H-indole-2-carbonyl)-2-methylpiperazin-1-yl)-2-oxoethyl)-5-methylpiperazin-2-yl)methoxy)ethoxy)ethoxy)ethyl)piperazin-1-yl)-2-methylpyrimidin-4-yl)amino)thiazole-5-carboxamide], the IC50 lay in the range of 3 to 30 µM.
For `CN[C@@H](C)C(=O)N[C@H](C(=O)N1CCN(C(=O)c2cc3ccc(OC)cc3n2C)C[C@@H]1C)C1CCCCC1` [Example 32, (S)—N—((S)-1-Cyclohexyl-2-((S)-4-(6-methoxy-1-methyl-1H-indole-2-carbonyl)-2-methylpiperazin-1-yl)-2-oxoethyl)-2-(methylamino)propanamide Hydrochloride], the inhibition at 3 µM lay within 50 to 75%.
On the same count and under the same terms, with `CN[C@@H](C)C(=O)N[C@H](C(=O)N1CCN(C(=O)c2c(C(=O)NCCOC)c3ccc(OC)cc3n2C)CC1)C1CCCCC1` [Example 25, 2-(4-((S)-2-Cyclohexyl-2-((S)-2-(methylamino)propanamido)acetyl)piperazine-1-carbonyl)-6-methoxy-N-(2-methoxyethyl)-1-methyl-1H-indole-3-carboxamide Hydrochloride] the figure was more than 75%.
On to `C[C@@H]1CN(CC(=O)N2CCN(C(=O)c3cc4cc(F)c(F)cc4n3C)C[C@H]2C)[C@@H](COCCOCCOCCOCCO)CN1` [Example 65, 1-((R)-4-(5,6-Difluoro-1-methyl-1H-indole-2-carbonyl)-2-methylpiperazin-1-yl)-2-((2R,5R)-2-(13-hydroxy-2,5,8,11-tetraoxatridecyl)-5-methylpiperazin-1-yl)ethan-1-one], for which the IC50 lay within 3 to 30 µM.
Consider `CN[C@@H](C)C(=O)N[C@H](C(=O)N1CCN(C(=O)c2ccc3nc(C)n(C)c3c2)CC1)C1CCCCC1` [Example 18, (S)-N-((S)-1-cyclohexyl-2-(4-(1,2-dimethyl-1H-benzo[d]imidazole-6-carbonyl)piperazin-1-yl)-2-oxoethyl)-2-(methylamino)propanamide], for which the inhibition at 3 µM is more than 25%.
Same read-out and setting: with `CN[C@@H](C)C(=O)N[C@H](C(=O)N1CCN(C(=O)c2ccn3cc(C)nc3c2)CC1)C1CCCCC1` [Example 21, (S)-N-((S)-1-cyclohexyl-2-(4-(2-methylimidazo[1,2-a]pyridine-7-carbonyl)piperazin-1-yl)-2-oxoethyl)-2-(methylamino)propanamide] the figure was more than 25%; with `CN[C@@H](C)C(=O)N[C@H](C(=O)N1CCN(C(=O)c2cc(C(F)(F)F)nn2C)CC1)C1CCCCC1` [Example 11, (S)-N-((S)-1-cyclohexyl-2-(4-(1-methyl-3-(trifluoromethyl)-1H-pyrazole-5-carbonyl)piperazin-1-yl)-2-oxoethyl)-2-(methylamino)propanamide], more than 25%.
